In ChEMBL document CHEMBL3108755, “Dermacozines H-J isolated from a deep-sea strain of Dermacoccus abyssi from Mariana Trench sediments” (J Nat Prod, 2014):

Test system: Radical scavenging activity
Assay: Antioxidant activity assessed as DPPH radical scavenging activity
Assay type: functional

IC50	Compound
19.6 µM	CC(=O)NC(CSc1ccc(C(N)=O)c2c1Nc1c(C(N)=O)cc(C(=O)c3ccccc3)cc1N2C)C(=O)O (stereo not given)
18.8 µM	CN1c2cc(C=O)cc(C(=O)O)c2Nc2cccc(C(N)=O)c21
34.6 µM	CN1c2cccc(C(N)=O)c2Nc2c(C(=O)c3ccccc3)ccc(C(N)=O)c21

The remaining lines, values behind:

Compound	IC50
CN1c2cc(C(=O)c3ccccc3)cc(C(=O)O)c2Nc2cccc(C(N)=O)c21	8.4 µM
O=C1O[C@H]([C@@H](O)CO)C(O)=C1O [ASCORBIC ACID]	12.1 µM
